Some results are limits rather than exact numbers.

The IC50 is the point on the concentration scale where inhibition reaches its midpoint.

The target of one test is T1, Human NK1 Receptor (Homo sapiens, UniProt P25103).
T1 construct: endogenous in cells; host or cells: Human lymphoma IM9 cells (whole cells)
T1 sequence (P25103 whole entry): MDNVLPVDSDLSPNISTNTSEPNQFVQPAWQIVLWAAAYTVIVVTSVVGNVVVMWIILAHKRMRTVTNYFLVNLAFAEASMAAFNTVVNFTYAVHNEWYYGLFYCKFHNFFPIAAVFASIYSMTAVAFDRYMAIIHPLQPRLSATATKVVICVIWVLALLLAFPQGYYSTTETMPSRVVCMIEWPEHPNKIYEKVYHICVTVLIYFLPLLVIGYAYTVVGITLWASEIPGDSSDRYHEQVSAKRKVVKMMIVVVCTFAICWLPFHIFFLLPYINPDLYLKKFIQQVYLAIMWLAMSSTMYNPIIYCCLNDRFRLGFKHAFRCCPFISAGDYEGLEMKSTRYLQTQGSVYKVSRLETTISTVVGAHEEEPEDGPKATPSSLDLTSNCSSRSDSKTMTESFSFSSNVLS
The test can be described thus: In Vitro Human NK1 Receptor Binding Assay ([125I]Bolton-Hunter substance P displacement, IM9 cells). The note with it: Human lymphoma IM9 cells, [125I]Bolton-Hunter substance P; Table 3, array-synthesis products; read-out: IC50 (nM) hNK1. The procedure, abridged: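 Test compounds competed with 0.05-0.1 nM [125I]Bolton-Hunter substance P for binding to intact IM9 cells over 50 min at 21° C, pH 7.4 buffer with MnCl2 and peptidase inhibitors. […] [Sar9, Met(O2)11] substance P gave non-specific binding. Bound counts were measured after filtration and fitted iteratively.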
For the compound `CC(NC(=O)C(Cc1c[nH]c2ccccc12)NCc1cc2ccccc2o1)C1CCCCC1` (stereo not drawn) [Example 241, 2-[(Benzofuran-2-ylmethyl)-amino]-N-(1-cyclohexyl-ethyl)-3-(1H-indol-3-yl)-propionamide], the IC50 came out at 2 nM.
Same read-out and setting: for `O=C(NCc1ccc(F)c(F)c1)C(Cc1c[nH]c2ccccc12)NCc1cc2ccccc2o1` (stereo not drawn) [Example 268, 2-[(Benzofuran-2-ylmethyl)-amino]-N-(3,4-difluoro-benzyl)-3-(1H-indol-3-yl)-propionamide] the value was 10 nM; for `O=C(NC1CCCCC1)C(Cc1c[nH]c2ccccc12)NCc1cc2ccccc2o1` (stereo not drawn) [Example 276, 2-[(Benzofuran-2-ylmethyl)-amino]-N-cyclohexyl-3-(1H-indol-3-yl)-propionamide], 655 nM; for `O=C(NCC1CCNC1)C(Cc1c[nH]c2ccccc12)NCc1cc2ccccc2o1` (stereo not drawn) [Example 202, 2-[(Benzofuran-2-ylmethyl)-amino]-3-(1H-indol-3-yl)-N-pyrrolidin-3-ylmethyl-propionamide], 2180 nM.
On the same count and under the same terms, next, `O=C(NC(CO)Cc1ccccc1)C(Cc1c[nH]c2ccccc12)NCc1cc2ccccc2o1` (stereo not drawn) [Example 289, 2-[(Benzofuran-2-ylmethyl)-amino]-N-(1-hydroxymethyl-2-phenyl-ethyl)-3-(1H-indol-3-yl)-propionamide]: 209 nM.
On the same count and under the same terms, for `O=C(NCCN1CCOCC1)C(Cc1c[nH]c2ccccc12)NCc1cc2ccccc2o1` (stereo not drawn) [Example 213, 2-[(Benzofuran-2-ylmethyl)-amino]-3-(1H-indol-3-yl)-N-(2-morpholin-4-yl-ethyl)-propionamide] the value was 1260 nM; for `CC(NC(=O)C(Cc1c[nH]c2ccccc12)NCc1cc2ccccc2o1)c1ccc(Br)cc1` (stereo not drawn) [Example 290, 2-[(Benzofuran-2-ylmethyl)-amino]-N-[1-(4-bromo-phenyl)-ethyl]-3-(1H-indol-3-yl)-propionamide], 8 nM.
`O=C(NCc1ccccn1)C(Cc1c[nH]c2ccccc12)NCc1cc2ccccc2o1` (stereo not drawn) [Example 192, 2-[(Benzofuran-2-ylmethyl)-amino]-3-(1H-indol-3-yl)-N-pyridin-2-ylmethyl-propionamide]: the IC50 was found to be 1980 nM.

The same test, now with this note: Table 4; [125I]Bolton-Hunter substance P displacement, human IM9 cells; read-out: IC50 (nM) hNK1.
For `CC=C(C)CCC=C(C)CNC(C)(Cc1c[nH]c2ccccc12)C(=O)NC(C)c1ccccc1` (stereo not drawn) [compound 352, 2-(2,6-Dimethyl-octa-2,6-dienylamino)-3-(1H-indol-3-yl)-2-methyl-N-(1-phenyl-ethyl)-propionamide], the IC50 was found to be 2210 nM.
In the case of `CC(NC(=O)C(C)(Cc1c[nH]c2ccccc12)NCc1cncc2ccccc12)c1ccccc1` (stereo not drawn) [compound 318, 3-(1H-Indol-3-yl)-2-[(isoquinolin-4-ylmethyl)-amino]-2-methyl-N-(1-phenyl-ethyl)-propionamide], the IC50 amounted to 1600 nM.
The same measure, in the same setting: for “Toluene-4-sulfonic acid 3-{[2-(1H-indol-3-yl)-1-methyl-1-(1-phenyl-ethylcarbamoyl)-ethylamino]-methyl}-phenyl ester [compound 342]” the value was 5090 nM.
With `CC(NC(=O)C(C)(Cc1c[nH]c2ccccc12)NCc1ccc(OCCCC(C)(C)C(=O)O)cc1)c1ccccc1` (stereo not drawn) [compound 327, 5-(4-{[2-(1H-Indol-3-yl)-1-methyl-1-(1-phenyl-ethylcarbamoyl)-ethylamino]-methyl}-phenoxy)-2,2-dimethyl-pentanoic acid], the IC50 was over 10000 nM.
Same read-out and setting: for `CNS(=O)(=O)c1cc(Cl)ccc1CNC(C)(Cc1c[nH]c2ccccc12)C(=O)NC(C)c1ccccc1` (stereo not drawn) [compound 330, 2-(4-Chloro-2-methylsulfamoyl-benzylamino)-3-(1H-indol-3-yl)-2-methyl-N-(1-phenyl-ethyl)-propionamide] the value was 1100 nM.

Still in this test, the particulars now being: Table 5; [125I]Bolton-Hunter substance P displacement, human IM9 cells; read-out: IC50 (nM) hNK1.
Regarding `CC(NC(=O)C(Cc1c[nH]c2ccccc12)NCc1ccccn1)c1ccccc1` (stereo not drawn) [compound 395], the IC50 was over 10000 nM.
Consider `CNS(=O)(=O)c1cc(Cl)ccc1CNC(Cc1c[nH]c2ccccc12)C(=O)NC(C)c1ccccc1` (stereo not drawn) [compound 369], for which the IC50 turned out to be 450 nM.
As for `CC(NC(=O)C(Cc1c[nH]c2ccccc12)NCc1ccc2ccccc2c1)c1ccccc1` (stereo not drawn) [compound 394], the IC50 was determined as 158 nM.
Same read-out and setting: next, `CC(NC(=O)C(Cc1c[nH]c2ccccc12)NCc1ccc2c(c1)OCO2)c1ccccc1` (stereo not drawn) [compound 386]: 240 nM.

The test is the same for the next values; noted with them: human NK1 receptor, IM9 cells, [125I]Bolton-Hunter substance P; read-out: IC50 (nM) hNK1.
With `CC(Cc1c[nH]c2ccccc12)(NCc1cc2ccccc2o1)C(=O)NCCc1cccs1` (stereo not drawn) [compound 172, 2-[(Benzofuran-2-ylmethyl)-amino]-3-(1H-indol-3-yl)-2-methyl-N-(2-thiophen-2-yl-ethyl)-propionamide], the IC50 is 153 nM.
Same read-out and setting: next, `COc1ccc(C(C)NC(=O)C(C)(Cc2c[nH]c3ccccc23)NCc2cc3ccccc3o2)cc1` (stereo not drawn) [compound 35, 2-[(Benzofuran-2-ylmethyl)-amino]-3-(1H-indol-3-yl)-N-[1-(4-methoxy-phenyl)-ethyl]-2-methyl-propionamide]: 31 nM.
Consider `CC(Cc1c[nH]c2ccccc12)(NCc1cc2ccccc2o1)C(=O)NCc1ccc(O)c(O)c1` (stereo not drawn) [compound 182, 2-[(Benzofuran-2-ylmethyl)-amino]-N-(3,4-dihydroxy-benzyl)-3-(1H-indol-3-yl)-2-methyl-propionamide], for which the IC50 is over 10000 nM.
Same read-out and setting: next, `CCC(NC(=O)C(C)(Cc1c[nH]c2ccccc12)NCc1cc2ccccc2o1)c1ccccc1` (stereo not drawn) [compound 162, 2-[(Benzofuran-2-ylmethyl)-amino]-3-(1H-indol-3-yl)-2-methyl-N-(1-phenyl-propyl)-propionamide]: 42 nM.
For `CC(NC(=O)C(C)(Cc1c[nH]c2ccccc12)NCc1cc2ccccc2o1)c1ccc(N(C)C)cc1` (stereo not drawn) [compound 39, 2-[(Benzofuran-2-ylmethyl)-amino]-N-[1-(4-dimethylamino-phenyl)-ethyl]-3-(1H-indol-3-yl)-2-methyl-propionamide], the IC50 stood at 863 nM.
In the case of `CC(Cc1c[nH]c2ccccc12)(NCc1cc2ccccc2o1)C(=O)NCC(C)(C)N1CCCCC1` (stereo not drawn) [compound 131, 2-[(Benzofuran-2-ylmethyl)-amino]-3-(1H-indol-3-yl)-2-methyl-N-(2-methyl-2-piperidin-1-yl-propyl)-propionamide], the IC50 was over 10000 nM.
Regarding `CC(Cc1c[nH]c2ccccc12)(NCc1cc2ccccc2o1)C(=O)NCC(O)c1ccccc1` (stereo not drawn) [compound 73, 2-[(Benzofuran-2-ylmethyl)-amino]-N-(2-hydroxy-2-phenyl-ethyl)-3-(1H-indol-3-yl)-2-methyl-propionamide], the IC50 is 1230 nM.
On the same count and under the same terms, for `CC(Cc1c[nH]c2ccccc12)(NCc1cc2ccccc2o1)C(=O)NCC1(c2cccnc2)CCC1` (stereo not drawn) [compound 159, 2-[(Benzofuran-2-ylmethyl)-amino]-3-(1H-indol-3-yl)-2-methyl-N-(1-pyridin-3-yl-cyclobutylmethyl)-propionamide] the value was 3760 nM; for `CC(Cc1c[nH]c2ccccc12)(NCc1cc2ccccc2o1)C(=O)NCc1cc(F)ccc1F` (stereo not drawn) [compound 139, 2-[(Benzofuran-2-ylmethyl)-amino]-N-(2,5-difluoro-benzyl)-3-(1H-indol-3-yl)-2-methyl-propionamide], 99 nM; for `CC(NC(=O)C(C)(Cc1c[nH]c2ccccc12)NCc1cc2ccccc2o1)c1cc(Cl)sc1Cl` (stereo not drawn) [compound 122, 2-[(Benzofuran-2-ylmethyl)-amino]-N-[1-(2,5-dichloro-thiophen-3-yl)-ethyl]-3-(1H-indol-3-yl)-2-methyl-propionamide], 442 nM.
